# Measured values published in patent publication US20230363335A1, “STANDARDIZED AND VIRUS-FREE RAPID PROPAGATION METHOD OF DIANTHUS CARYOPHYLLUS” (Flower Research Institute, Yunnan Academy of Agricultural …, priority 2022, published 2023).
# What was measured:
# [1] = tested on: Carnation mottle virus (CarMV) and Carnation necrotic fleck virus (CNFV); experiment: Virus-free culture, ribavirin combined with shoot apex peeling: virus-free regenerated plants; assay type: in vivo, Dianthus caryophyllus; conditions: 3 mg/L to 5 mg/L ribavirin in medium, 30 d to 40 d; for Number of virus-free regenerated plant (s): 30 shoot apexes
# Method: Double-antibody sandwich ELISA included: 100 µL of an antibody diluted to a working concentration with a coating buffer was added to wells of a microtiter plate, the microtiter plate was placed in a wet box, and incubated in a refrigerator at 4° C. overnight, or incubated at room temperature (20° C. to 25° C.) for 4 h. The coating buffer was a 0.05 mol/L Na2CO3—NaHCO3 buffer, at a pH value of 9.6. Dianthus caryophyllus leaves and a grinding buffer were put in a disposable ziplock bag at a ratio of 1:10 (W/V), the bag was sealed tightly, and the sample was ground. The grinding buffer was obtained by: dissolving 2.0 g of a skim milk powder, 10.0 g of polyvinylpyrrolidone (PVP, MW24,000-40,000), 1.3 g of anhydrous sodium sulfite, 0.2 g of NaN3, and 10.0 g of Tween-20 in a washing buffer (PBST), diluting to 1,000 mL, and storing at 4° C. The washing buffer (PBST) was obtained by: dissolving 8.0 g of NaCl, 0.2 g of KH2PO4, 2.9 g of Na2HPO4·12H2O, 0.2 g of KCl, and 0.5 mL of Tween-20 in distilled water, diluting to 1,000 mL, and adjusting to a pH value of 7.4. After incubation, the microtiter plate was washed 4 to 6 times with the washing buffer. 400 µL of the PBST washing buffer was added to each well and held for 1 min to 2 min each time. 100 µL of a supernatant after grinding was added to each well, and each sample to be tested was repeated twice, and a negative control and a positive control were set at the same time. The microtiter plate was placed in a wet box, incubated in a refrigerator at 4° C. overnight or incubated at 21° C. to 24° C. for 2.5 h. The plate was washed. An enzyme-labeled antibody was prepared 10 min before coating, a dilution buffer of the specific enzyme-labeled antibody was diluted to a working concentration, and 100 µL was added to each well. The microtiter plate was placed in a wet box, incubated at 21° C. to 24° C. for 2.5 h. The plate was washed. The dilution buffer of the enzyme-labeled antibody was obtained by: dissolving 2.0 g of bovine serum albumin (BSA), 10.0 g of PVP (MW24,000-40,000), and 0.2 g of NaN3 in the PBST, diluting to 1,000 mL, and storing at 4° C. 100 µL of a substrate solution was added to each well. The substrate solution was prepared for immediate use by: dissolving 1 mg of PNPP in 1 mL of a substrate buffer, with a concentration of 1 mg/mL. The substrate buffer is obtained by: dissolving 97.0 mL of diethanolamine, 0.1 g of magnesium chloride, and 0.2 g of NaN3 in 800 mL of distilled water, adjusting to a pH value of 9.8 with 2 mol/L hydrochloric acid, diluting to 1000 mL, and storing at 4° C. The microtiter plate was placed in a wet box, to conduct color development at 21° C. to 24° C. for 30 min to 60 min in the dark. 50 µL of a stop solution was added to each well to stop the reaction. The stop solution was a sodium hydroxide solution of 3 mol/L. Within 20 min of stopping the reaction, the microtiter plate was placed in a microplate reader, an absorbance (OD405) was measured at 405 nm, and a reaction result was recorded. If an average OD value of the sample was greater than 2 times an OD value of the negative control, it was determined to be the CarMV.
# The indirect ELISA included: Dianthus caryophyllus leaves and an indirect sample extraction buffer were placed in a disposable ziplock bag at a ratio of 1:100 (W/V), the bag was sealed tightly, and the sample was ground. The sample extraction buffer was obtained by: dissolving 20.1 g of PVP (MW24,000-40,000), 0.2 g of NaN3, 3.0 g of NaHCO3, and 1.6 g of Na2CO3 in distilled water, diluting to […], and storing at 4° C. 100 µL of a supernatant after grinding was added to each well, and each sample to be tested was repeated twice, and a negative control and a positive control were set at the same time. The microtiter plate was placed in a wet box and incubated at room temperature for 1 h. After incubation, the microtiter plate was washed 8 times with the PBST washing buffer. […]
# [2] = tested on: Dianthus caryophyllus shoot apex; experiment: Virus-free culture, ribavirin combined with shoot apex peeling: regeneration of peeled shoot apex; assay type: in vivo; conditions: 3 mg/L to 5 mg/L ribavirin in medium, 30 d to 40 d; for Number of regenerated plant (s): 30 shoot apexes
# From the text: After the explant germinated and buds grew to 2 cm to 3 cm, the buds were cut and subjected to virus-free culture; three virus-free methods were used, and the most suitable virus-free method was selected for Dianthus caryophyllus. • (1) Directly shoot apex peeling method: the material was placed on an ultra-clean workbench, and tender leaves were peeled off with tweezers and a scalpel under the naked eye to expose a growth cone; a base of the bud was fixed with tweezers, and the shoot apex was continued to be peeled under a dissecting microscope at 25 to 50 times; when peeling to a growth point containing 1 to 2 pairs of leaf primordia, the shoot apex was picked on a medium with the tip of a knife. • (2) High-temperature treatment combined with shoot apex peeling method: the material was placed in a KBWF720 artificial climate box, and incubated for 30 d to 35 d at 38° C. ± 1° C. every day, with illumination for 14 h to 16 h at 1,200 Lux to 1,500 Lux, and then with darkness for 8 h to 10 h; and the shoot apex was continued to be peeled under a dissecting microscope at 25 to 50 times; when peeling to a growth point containing 1 to 2 pairs of leaf primordia, the shoot apex was picked on a medium with the tip of a knife. • (3) Ribavirin combined with shoot apex peeling method: the material was inoculated on a medium containing ribavirin for culture, namely MS+BA 0.5 mg/L to 1.5 mg/L+NAA 0.1 mg/L to 0.3 mg/L+3 mg/L to 5 mg/L ribavirin+A Agar 6.0 g/L, 3% sucrose, at a pH value of 5.8 to 6.0; after culturing for 30 d to 40 d, the shoot apex was peeled off.
# The peeled shoot apex was inoculated on a medium including MS+BA 0.5 mg/L to 1.0 mg/L+NAA 0.1 mg/L to 0.3 mg/L+A agar 6.0 g/L, 3% sucrose, at a pH value of 5.8 to 6.0; each shoot apex was cultured and numbered separately; the culture was conducted at 22±1° C. and an illumination intensity of 2,000 Lux to 4,000 Lux with an illumination time of 10 h/d to 12 h/d.
# [3] = growth point of peeled shoot apex 0.2 mm
# [4] = growth point of peeled shoot apex 0.4 mm
# [5] = growth point of peeled shoot apex 0.6 mm
# [6] = growth point of peeled shoot apex 0.8 mm
# [7] = growth point of peeled shoot apex 1.0 mm
smiles,measurement,setting,value
"NC(=O)c1ncn([C@@H]2O[C@H](CO)[C@@H](O)[C@H]2O)n1 [Ribavirin, ribavirin]",Virus-free rate (%),[1]; [3],33.33%
same,Number of virus-free regenerated plant (s),[1]; [3],10
same,Virus-free rate (%),[1]; [4],30.00%
same,Number of virus-free regenerated plant (s),[1]; [4],9
same,Virus-free rate (%),[1]; [5],26.67%
same,Number of virus-free regenerated plant (s),[1]; [5],8
same,Virus-free rate (%),[1]; [6],20.00%
same,Number of virus-free regenerated plant (s),[1]; [6],6
same,Virus-free rate (%),[1]; [7],10.00%
same,Number of virus-free regenerated plant (s),[1]; [7],3
same,Regeneration rate (%),[2]; [3],53.33%
same,Number of regenerated plant (s),[2]; [3],16
same,Regeneration rate (%),[2]; [4],63.33%
same,Number of regenerated plant (s),[2]; [4],19
same,Regeneration rate (%),[2]; [5],73.33%
same,Number of regenerated plant (s),[2]; [5],22
same,Regeneration rate (%),[2]; [6],86.67%
same,Number of regenerated plant (s),[2]; [6],26
same,Regeneration rate (%),[2]; [7],96.67%
same,Number of regenerated plant (s),[2]; [7],29
